From patent US8981094B2, “Piperidine/piperazine derivatives” (Janssen Pharmaceutica N.V., priority 2007, dated 2015)

Legend:
human DGAT1 = target: T1, human DGAT1 (Homo sapiens, UniProt O75907); assay: Inhibition of DGAT1 activity, FlashPlate assay with DGAT1 membrane preparations and substrate micelles; format: biochemical; conditions: pIC50 = -logIC50, IC50 values expressed in M
T1 construct: FLAG (N); made in house; host or cells: SF9 insect cells (pFastBac baculovirus); total cell membranes
T1 sequence (O75907 1-488): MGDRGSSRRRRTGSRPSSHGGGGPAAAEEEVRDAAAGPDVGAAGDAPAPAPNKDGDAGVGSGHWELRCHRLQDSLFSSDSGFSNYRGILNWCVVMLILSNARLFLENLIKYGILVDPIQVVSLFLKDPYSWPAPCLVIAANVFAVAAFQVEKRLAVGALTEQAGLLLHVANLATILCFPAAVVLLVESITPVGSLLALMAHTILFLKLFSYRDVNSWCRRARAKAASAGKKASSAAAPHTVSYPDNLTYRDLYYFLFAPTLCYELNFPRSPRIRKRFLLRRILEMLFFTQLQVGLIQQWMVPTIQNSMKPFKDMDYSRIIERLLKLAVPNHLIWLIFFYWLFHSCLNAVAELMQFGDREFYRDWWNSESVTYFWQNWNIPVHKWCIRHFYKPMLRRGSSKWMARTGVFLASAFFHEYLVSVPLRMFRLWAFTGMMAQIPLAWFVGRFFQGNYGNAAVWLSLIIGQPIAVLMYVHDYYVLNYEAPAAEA
Procedure, shortened: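 FLAG-tagged human DGAT1 membranes (expressed in Sf9 cells) were incubated 120 min at 37° C. in 50 mM Tris-HCl pH 7.4 with 150 mM MgCl2, 1 mM EDTA, 0.2% BSA, 50 μM DAG micelles (PC/PS) and 8.4 μM [^3H]-oleoylCoA. The reaction was stopped with N-ethylmaleimide and read as FlashPlate radioluminescence. Responses were normalized to enzyme/no-enzyme controls to fit dose-response curves.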

| SMILES | melting point | IC50 (human DGAT1) |
| --- | --- | --- |
| O=C(CCCc1ccccc1)Nc1ccc(N2CCN(C(=O)Nc3ccccc3Cl)CC2)cc1 [Compound 34] | 142.1 °C | 145 nM |
| COc1ccccc1CNC(=O)N1CCN(c2ccc(NC(=O)CCCc3ccccc3)cc2)CC1 [Compound 71] | 183.1 °C | 1070 nM |
| C=CCN(CCC(=O)Nc1ccc(N2CCN(C(=O)Nc3c(Cl)cccc3Cl)CC2)cc1)c1ccccc1Cl [Compound 7] | 232 to 233 °C | 8.51 nM |
| CCCCCCC(=O)Nc1ccc(N2CCN(C(=O)Nc3c(Cl)cccc3Cl)CC2)cc1 [Compound 8] | 245.1 °C | 8.91 nM |
| O=C(CCCc1ccccc1)Nc1ccc(N2CCN(C(=O)Nc3ccccc3OC(F)(F)F)CC2)cc1 [Compound 84] | 162.2 °C | 1480 nM |
| CN(C(=O)CCCc1ccccc1)c1ccc(N2CCN(C(=O)Nc3c(Cl)cccc3Cl)CC2)cc1 [Compound 42] | 175.2 °C | 6920 nM |
| O=C(CCc1ccncc1)Nc1ccc(N2CCN(C(=O)Nc3c(Cl)cccc3Cl)CC2)cc1 [Compound 193] | 263 to 264 °C | 339 nM |
| Cc1cc(Cl)c(CC(=O)N2CCN(c3ccc(C(=O)NCc4cccc(N5CCCC5)c4)cc3)CC2)c(Cl)n1 [Compound 242] | 172.73 °C | 129 nM |
| Cc1ccccc1NC(=O)N1CCN(c2ccc(NC(=O)CCCc3ccccc3)cc2)CC1 [Compound 96] | 164.7 °C | 75.9 nM |
| O=C(CCCc1ccccc1)Nc1ccc(N2CCN(C(=O)Nc3c(Cl)c(Cl)cc(Cl)c3Cl)CC2)cc1 [Compound 88] | 225.1 °C | 479 nM |
| COC(=O)c1ccccc1NC(=O)N1CCN(c2ccc(NC(=O)CCCc3ccccc3)cc2)CC1 [Compound 92] | 165.4 °C | 7410 nM |
| Cc1cc(C)cc(N2CCN(CC(=O)Nc3ccc(N4CCN(C(=O)Nc5c(Cl)cccc5Cl)CC4)cc3)CC2)c1 [Compound 41] | 186.1 °C | 77.6 nM |
| COc1ccc(CNC(=O)c2ccc(N3CCN(C(=O)Nc4c(Cl)cc(CN(C(C)C)C(C)C)cc4Cl)CC3)cc2)cc1 [Compound 240] | 208.87 °C | 81.3 nM |
| COc1cc(Cl)c(NC(=O)N2CCN(c3ccc(NC(=O)CCCc4ccccc4)cc3)CC2)c(OC)c1 [Compound 188] | 208 to 210 °C | 74.1 nM |
| O=C(CCCc1ccccc1)Nc1ccc(N2CCN(C(=O)Nc3c(F)cc(F)cc3F)CC2)cc1 [Compound 82] | 173.6 °C | 75.9 nM |
| COc1ccc(CC(=O)Nc2ccc(N3CCN(C(=O)Nc4c(Cl)cc(O)cc4Cl)CC3)cc2)cc1 [Compound 16] | 183 to 184 °C | 4.68 nM |
| O=C(NCc1cccc(N2CCCC2)c1)c1ccc(N2CCN(C(=O)Cc3c(Cl)cccc3Cl)CC2)cc1 [Compound 234] | 251.1 °C | 50.1 nM |
| CN(CC(=O)Nc1ccc(N2CCN(C(=O)Nc3c(Cl)cccc3Cl)CC2)cc1)C(=O)NC(C)(C)C [Compound 165] | 214 to 215 °C | 64.6 nM |

| SMILES | melting point | IC50 (human DGAT1) |
| --- | --- | --- |
| Cc1cc(C)c(NC(=O)N2CCN(c3ccc(NC(=O)CCCc4ccccc4)cc3)CC2)c(Br)c1 [Compound 11] | 238.7 °C | 6.17 nM |
| O=C(CCCc1ccccc1)Nc1ccc(N2CCN(C(=O)Nc3c(Cl)cccc3Cl)CC2)cc1 [Compound 58] | 114 to 124 °C | 5.37 nM |
| O=C(CCCc1ccccc1)Nc1ccc(N2CCN(C(=O)Nc3c(F)cc(Br)cc3Br)CC2)cc1 [Compound 63] | 218.6 °C | 30.9 nM |
| CC(C)C(=O)N(C)CC(=O)Nc1ccc(N2CCN(C(=O)Nc3c(Cl)cccc3Cl)CC2)cc1 [Compound 166] | 232 to 234 °C | 63.1 nM |
| O=C(CNC1CCCCC1)Nc1ccc(N2CCN(C(=O)Nc3c(Cl)cccc3Cl)CC2)cc1 [Compound 180] | 185 to 187 °C | 407 nM |
| CC(C)c1ccccc1NC(=O)N1CCN(c2ccc(NC(=O)CCCc3ccccc3)cc2)CC1 [Compound 90] | 214.2 °C | 589 nM |
| O=C(CCCc1ccccc1)Nc1ccc(N2CCN(C(=O)Nc3c(F)c(F)c(F)c(F)c3F)CC2)cc1 [Compound 87] | 181.2 °C | 3310 nM |
| Cc1cc(Br)cc(C)c1NC(=O)N1CCN(c2ccc(NC(=O)CCCc3ccccc3)cc2)CC1 [Compound 61] | 241.7 °C | 38 nM |
| O=C(CCNCc1ccc(F)cc1)Nc1ccc(N2CCN(C(=O)Nc3c(Cl)cccc3Cl)CC2)cc1 [Compound 174] | 192 to 193 °C | 347 nM |
| COc1ccc(CNCC(=O)Nc2ccc(N3CCN(C(=O)Nc4c(Cl)cccc4Cl)CC3)cc2)cc1 [Compound 177] | 128 to 129 °C | 245 nM |
| Cc1cc(C)c(NC(=O)N2CCN(c3ccc(NC(=O)CCCc4ccccc4)cc3)CC2)c(Cl)c1 [Compound 64] | 210.6 °C | 7.08 nM |
| O=C(CCCc1ccccc1)Nc1ccc(N2CCN(C(=O)Nc3ccc(F)cc3F)CC2)cc1 [Compound 73] | 141.2 °C | 457 nM |
| CC1CCCN1CC(=O)Nc1ccc(N2CCN(C(=O)Nc3c(Cl)cccc3Cl)CC2)cc1 (centres unmarked) [Compound 179] | 220 to 222 °C | 1070 nM |
| CCCCC(=O)Nc1ccc(C2CCN(C(=O)Nc3c(Cl)cccc3Cl)CC2)cc1 [Compound 130] |  | 38 nM |
| CCCCC(=O)Nc1ccc(N2CCN(C(=O)Nc3c(Cl)cccc3Cl)CC2)cc1 [Compound 140] |  | 19.1 nM |
| O=C(NCc1ccccc1F)c1ccc(N2CCN(C(=O)Cc3c(Cl)cccc3Cl)CC2)cc1 [Compound 249] |  | 162 nM |
| CC(C)(C)OC(=O)NC(CO)C(=O)Nc1ccc(C2CCN(C(=O)Nc3c(Cl)cccc3Cl)CC2)cc1 (centres unmarked) [Compound 204] |  | 1910 nM |

The remaining lines, values ahead:

| melting point | IC50 (human DGAT1) | SMILES |
| --- | --- | --- |
| 247.07 °C | 1350 nM | C#CCNC(=O)c1ccc(N2CCN(C(=O)Cc3c(Cl)cccc3Cl)CC2)cc1 [Compound 259] |
| 200.57 °C | 355 nM | O=C(CCC(O)c1ccccc1)Nc1ccc(N2CCN(C(=O)Cc3c(Cl)cccc3Cl)CC2)cc1 (centres unmarked) [Compound 333] |
| 176.5 to 178 °C | 339 nM | COc1ccc(CNC(=O)c2ccc(N3CCN(C(=O)Nc4c(Cl)cc(CN5CCCC5)cc4Cl)CC3)cc2F)cc1 [Compound 255] |
| 179.55 °C | 479 nM | CC(O)c1cc(Cl)c(NC(=O)N2CCN(c3ccc(N(C)C(=O)CCCc4ccccc4)cc3)CC2)c(Cl)c1 (centres unmarked) [Compound 335] |
| 223.77 °C | 3980 nM | O=C(NCC1CCOCC1)c1ccc(N2CCN(C(=O)Nc3c(Cl)cc(CN4CCCC4)cc3Cl)CC2)cc1 [Compound 264] |
| 248.28 °C | 63.1 nM | COc1ccc(CC(=O)Nc2ccc(N3CCN(C(=O)Nc4c(Cl)cc(CC[N+](C)(C)C)cc4Cl)CC3)cc2)cc1 [Compound 317] |
| 242.27 °C | 661 nM | O=C(NCc1cccnc1)c1ccc(N2CCN(C(=O)Cc3c(Cl)cccc3Cl)CC2)cc1 [Compound 257] |
| 178 to 179 °C | 9.12 nM | COc1ccc(COC(=O)CCCC(=O)Nc2ccc(N3CCN(C(=O)Nc4c(Cl)cc(CN5CCCCC5)cc4Cl)CC3)cc2)cc1 [Compound 285] |
| 203 to 204 °C | 3.72 nM | CC(O)c1cc(Cl)c(NC(=O)N2CCC(c3ccc(NC(=O)CCCc4ccccc4)cc3)CC2)c(Cl)c1 (centres unmarked) [Compound 273] |
| 244 to 245 °C | 10.2 nM | O=C(CCNc1ccccc1Cl)Nc1ccc(N2CCN(C(=O)Nc3c(Cl)cccc3Cl)CC2)cc1 [Compound 289] |
| 198 to 199 °C | 4.27 nM | O=C(CCCc1ccccc1)Nc1ccc(C2CCN(C(=O)Nc3c(Cl)cc(CO)cc3Cl)CC2)cc1 [Compound 276] |
| 152 to 153 °C | 20.9 nM | O=C(CCCc1ccccc1)Nc1ccc(C2CCN(C(=O)Nc3c(Cl)cc(C(=O)O)cc3Cl)CC2)cc1 [Compound 301] |
| 204 to 205 °C | 107 nM | COC(=O)c1cc(Cl)c(NC(=O)N2CCC(c3ccc(NC(=O)CCCc4ccccc4)cc3)CC2)c(Cl)c1 [Compound 324] |
| 212 to 213 °C | 43.7 nM | Cc1ccc(CNCC(=O)Nc2ccc(N3CCN(C(=O)Nc4c(Cl)cc(O)cc4Cl)CC3)cc2)c(C)c1 [Compound 311] |
|  | 3550 nM | O=C(CCCc1ccccc1)Nc1ccc(N2CCN(C(=O)C(O)c3cccc(O)c3)CC2)cc1 (centres unmarked) [Compound 340] |
|  | 3.24 nM | CC(O)c1cc(Cl)c(NC(=O)N2CCN(c3ccc(NC(=O)CCCc4ccccc4)cc3)CC2)c(Cl)c1 (single isomer, unassigned) [Compound 271] |
|  | 3.98 nM | COCCNC(C)c1cc(Cl)c(NC(=O)N2CCN(c3ccc(NC(=O)CCCc4ccccc4)cc3)CC2)c(Cl)c1 (centres unmarked) [Compound 274] |
|  | 5250 nM | COc1cc(C(O)C(=O)N2CCN(c3ccc(NC(=O)CCCc4ccccc4)cc3)CC2)ccc1O (centres unmarked) [Compound 348] |
